From PMC7058788, “GLI1 Inhibitor SRI-38832 Attenuates Chemotherapeutic Resistance by Downregulating NBS1 Transcription in BRAF^V600E Colorectal Cancer” (Frontiers in Oncology, 2020)
“And” between values parts separate entries of the source, which are not always exact repeats. Identical values can stand only once.

Experiments:
[1] = system: HCT8; experiment: CellTiter-Glo Luminescent Cell Viability (cell proliferation) assay; assay type: cell-based, human; conditions: for IC50: Homo sapiens, HCT-8, Figure 5B-D, HCT8 (low GLI1 expression), unit inferred, x-axis in μM
Experimental: (§1) Confluent monolayers of cells were trypsinized, and 10,000 cells suspended in 200 μl of medium were added to each well of the 96-well plate. […] The proliferation of the cells was determined using the CellTiter-Glo Luminescent Cell Viability Assay kit (Promega).

[2] = system: HT29; experiment: as above; assay type: cell-based, human
Experimental: as §1

[3] = system: HT29; experiment: Annexin V/PI flow cytometry, cell death/apoptosis; assay type: cell-based
Experimental: (§2) Cells were treated, in duplicate, as described in the figure legends. At the end of treatment, cells were collected by trypsinization and incubated with Annexin V FITC (BD Biosciences) and PI (Sigma) prior to analysis using a FACS Calibur flow cytometer. Data was analyzed using FlowJo software.

[4] = system: HCT116; experiment: Annexin V/PI flow cytometry, cell death; assay type: cell-based, human; conditions: 10 and 20 μM, 72 h; low GLI1 and NBS1
Experimental: as §2

[5] = system: HCT8; experiment: Annexin V/PI flow cytometry, cell death; assay type: cell-based, human; conditions: 10 and 20 μM, 72 h; high GLI1 and NBS1
Experimental: as §2

[6] = system: SW480; experiment: Annexin V/PI flow cytometry, cell death; assay type: cell-based, human; conditions: 10 and 20 μM, 72 h; low GLI1 and NBS1
Experimental: as §2

[7] = system: HCT116; experiment: COMET assay, DNA damage by tail length; assay type: cell-based, human; conditions: 20 μM, 48 h
Experimental: (§3) Cells were treated with/without GANT61 (20 μM), SRI-38832 (20 μM) or 5-FU (20 μM) for 48 h, subsequently trypsinized and washed in PBS before being added to preheated (37°C), low-melting point agarose. The solution was pipetted onto slides pre-coated with 1% agarose. The chilled slides were allowed to lyse for 40 min at 4°C in 2.5 M NaCl,100 mM EDTA (pH 10), 10 mM Tris Base, 1% SDS, 1% Triton X−100 prior to immersion in alkaline electrophoresis solution (300 mM NaOH, 1 mM EDTA, pH 13). After 30 min, slides were placed into a horizontal electrophoresis chamber for ~30 min (1 V/cm at 4°C). The slides were washed with deionized H2O to remove the alkaline buffer, dehydrated in 70% ice–cold EtOH and air-dried overnight. Slides were stained with SYBR-Green and examined by microscopy. Tail length (TL) was used to quantify the DNA damage. Image analysis and quantification has been performed with ImageJ.

[8] = system: HT29; experiment: COMET assay, DNA damage by tail length; assay type: cell-based, human; conditions: 20 μM, 48 h
Experimental: as §3

[9] = system: NBS1; experiment: Western blot analysis of MRN components and damage/apoptosis markers in HT29 cells; assay type: cell-based, human; conditions: HT29, 20 μM, 72 h
Experimental: Cells were seeded in six-well plates and cultured until 70–80% confluent in 10% FBS-supplemented RPMI medium with L-glutamine and maintained at 37°C with 5% CO2. The cells were then treated with/without GANT61, SRI-38832, or 5-FU as indicated in the figure legends, and protein isolates were analyzed by Western blot. Briefly, 15 μg of protein was loaded and separated on a SDS-PAGE gel. Proteins were transferred to polyvinylidene difluoride (PVDF) membranes overnight. Membranes were washed in TBS-T, blotted in primary antibody overnight at 4°C, and subsequently washed and blotted with HRP-linked secondary antibody for 1 h. Membranes were developed and images were taken on an ImageQuant LAS 4000.

[10] = system: CRC; conditions: 5-FU and its combinational treatment (FOLFOX), in the clinic; cited from earlier work
[11] = system: NBS1 mRNA; experiment: NBS1 mRNA qRT-PCR in HT29 cells; assay type: cell-based, human; conditions: GANT61 as early as 24 h post treatment
Experimental: Total RNA was extracted by Invitrogen™ PureLink™ RNA Mini Kit (Fisher scientific) and cDNAs were synthesized with the ThermoScript reverse transcriptional system. qRT-PCR was performed to assess the enrichment of the specific proteins along the NBS1 ORF using specific primer pairs: NBS1-primer-1-F:[…],NBS1-primer-1-R: […]. Human GAPDH cDNA was used as an internal control.

[12] = biological target: T1, GLI1 (Homo sapiens, UniProt P08151); experiment: ChIP assay, GLI1 enrichment on the NBS1 promoter in HT29 cells; assay type: cell-based; conditions: HT29, 20 μM, 24 h
T1 construct: HT29, which express GLI1 and have high basal NBS1 expression; endogenous in cells; host or cells: HT29
T1 sequence (P08151 1-1106): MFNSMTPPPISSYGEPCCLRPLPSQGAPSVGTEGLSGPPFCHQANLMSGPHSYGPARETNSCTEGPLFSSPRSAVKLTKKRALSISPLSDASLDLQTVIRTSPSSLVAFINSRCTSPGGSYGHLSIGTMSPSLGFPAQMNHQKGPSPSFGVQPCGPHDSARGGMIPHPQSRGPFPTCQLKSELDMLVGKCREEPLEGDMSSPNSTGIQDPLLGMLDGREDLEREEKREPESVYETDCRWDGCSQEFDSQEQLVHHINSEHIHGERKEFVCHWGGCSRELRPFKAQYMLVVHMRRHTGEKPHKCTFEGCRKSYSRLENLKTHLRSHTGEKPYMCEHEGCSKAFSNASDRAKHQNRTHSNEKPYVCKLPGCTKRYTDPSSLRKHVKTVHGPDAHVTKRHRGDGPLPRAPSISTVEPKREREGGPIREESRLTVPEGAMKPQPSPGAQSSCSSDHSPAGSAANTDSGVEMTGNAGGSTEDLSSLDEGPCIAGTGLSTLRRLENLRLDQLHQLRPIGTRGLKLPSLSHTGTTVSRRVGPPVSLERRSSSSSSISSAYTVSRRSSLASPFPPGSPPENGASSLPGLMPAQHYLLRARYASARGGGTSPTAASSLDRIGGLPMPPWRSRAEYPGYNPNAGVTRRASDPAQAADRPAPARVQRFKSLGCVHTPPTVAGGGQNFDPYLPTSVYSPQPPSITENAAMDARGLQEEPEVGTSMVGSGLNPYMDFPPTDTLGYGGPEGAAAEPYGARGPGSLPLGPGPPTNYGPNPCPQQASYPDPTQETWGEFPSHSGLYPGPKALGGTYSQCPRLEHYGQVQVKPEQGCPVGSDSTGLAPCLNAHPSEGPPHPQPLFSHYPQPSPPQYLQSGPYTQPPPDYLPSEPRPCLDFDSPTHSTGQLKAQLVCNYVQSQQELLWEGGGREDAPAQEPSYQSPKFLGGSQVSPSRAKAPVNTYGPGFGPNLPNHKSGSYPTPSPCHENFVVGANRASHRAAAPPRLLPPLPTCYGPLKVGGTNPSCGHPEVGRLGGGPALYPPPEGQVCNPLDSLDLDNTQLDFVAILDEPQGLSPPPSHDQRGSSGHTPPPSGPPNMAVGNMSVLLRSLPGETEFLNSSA
Experimental: HT29 cells (2 × 10^6) were seeded in T75 flasks. After overnight attachment, cells were treated with/without GANT61 (20 μM) or SRI-38832 (20 μM) for 24 h. The cells were trypsinized, washed with 1x PBS and fixed with 1.1% formaldehyde for 10 min at RT. Glycine (0.125 M) was added to stop the reaction. Cells were washed with PBS × 1 and lysed using the ChIP kit according to the manufacturer's instructions (Abcam, Ab500). To fragment the DNA, the cells were sonicated (30 s with 30 s cooling repeatedly for 15 cycles) to obtain fragmented DNA from 100 bp to 1 kB which was verified by agarose gel migration. Lysates were subjected to immunoprecipitation overnight at 4°C with 10 μg of anti-human antibodies for GLI1 (Novus) and Histone H3 for positive control provided by the Abcam ChIP kit. The complex was subsequently incubated with Dynabeads protein G (Invitrogen) for 2 h, 4°C, on a rotating wheel. Beads were washed for 10 min at 4°C with low salt buffer (2x TE, 150 mM NaCl, 1% Triton X-100, 0.1% SDS). Beads were then washed for 10 min at 4°C with high salt buffer (2x TE, 500 mM NaCl, 1% Triton X-100, 0.1% SDS). Next, beads were washed for 10 min at 4° with LiCl buffer (1x TE, 1% NP-40, 0.25 M LiCl, 1% deoxycholate). […]

[13] = system: MRN complex; experiment: Confocal microscopy, NBS1 signal and NBS1/MRE11 co-localization in HT29 cells; assay type: cell-based, human
Experimental: Cells were plated at a density of 50,000 cells/well in six-well plates on coverslips and allowed to attach overnight. Media was removed and cells were treated with/without GANT61 (20 μM) for 48 h. Coverslips were removed and placed in a humidity chamber for fixation by absolute methanol for 10 min at 4°C. Cells were permeabilized with acetone for 1 min at 4°C. After washing with PBS × 3, cells were incubated with the diluted primary antibody overnight at 4°C. Cells were subsequently washed x 3 and incubated with appropriate secondary antibody at room temperature in the dark for 1 h. After washing with PBS, cell nuclei were stained with DAPI at RT for 5–10 min. Confocal images were acquired on a Nikon A1 laser confocal system with a Nikon Eclipse Ti microscope and a 60X Plan Apo objective. Lasers used were 405 nm for blue, 488 nm for green, and 561 nm for red. NIS Elements AR 4.5000 software was used to acquire Z-stacks of each channel sequentially to avoid spectral cross talk. Each slice was captured at a 0.15 μm step. Primary antibodies used were γH2AX (Millipore 1:200), NBS1 (Novus 1:200), and MRE11 (Cell Signaling 1:200). The co-localization index for specific foci and fluorescent intensity were calculated by ImageJ.

[14] = set-up: method as in PMID 29338454; conditions: cited from earlier work
[15] = system: BRAF^V600E variant; set-up: method as in PMID 26460303; conditions: single agent, BRAF^V600E CRC patients; cited from earlier work
[16] = Homo sapiens, HT-29, Figure 5B-D, HT29 (high GLI1 expression), unit inferred, x-axis in μM
[17] = Homo sapiens, HT-29, Figure 5E, comparison on HT29, unit inferred
[18] = Homo sapiens, HT-29, HT29, values in running text

Structure (SMILES): O=c1[nH]cc(F)c(=O)[nH]1 [5-FU, 5-fluorouracil]
- IC50 in HCT8 lower than in HT29 ([1]; HCT8 vs HT29): 5 fold
- IC50 [1]: 110 µM
- IC50 [2, 16]: 528 µM
- IC50 [2, 17]: 525 µM
- IC50 [2, 18]: 625 µM
- sensitivity to 5-FU treatment (cell death) ([3]; 10 and 20 μM, 72 h, high GLI1 and NBS1): resistant
- apoptotic cells after 5-FU treatment ([3]; shGLI1 HT29 cells): about 60%
- apoptotic cells after 5-FU treatment ([3]; siNBS1 HT29 cells): Over 40%
- dead cells after 5-FU treatment ([3]; vector HT29 cells (shGLI1 experiment)): 20%
- sensitivity to 5-FU treatment (cell death) [4]: highly sensitive
- sensitivity to 5-FU treatment (cell death) [5]: resistant
- sensitivity to 5-FU treatment (cell death) [6]: highly sensitive
- tail length relative to control [7]: about 3.5 time of control
- induction of DNA damage (comet assay) [8]: did not
- expression of MRE11 and RAD50 [9]: did not result in any significant decreases
- total NBS1 protein level [9]: did not result in any significant decreases
- overall response rate [10]: 10–15%

Structure (SMILES): CN(C)c1ccccc1CN1CCCN(Cc2ccccc2N(C)C)C1c1ccncc1 [GANT61]
- IC50 ([2]; Figure 6A, HT29, unit inferred): 22 µM
- IC50 ([2]; HT29, values in running text): 21.9 µM and 21 µM
- cells rescued from apoptosis after GANT61 treatment by overexpression of any NBS1 vector ([3]; GANT61 20 μM, 72 h, NBS1, S343A or S343E overexpressing HT29): ~ 25%
- apoptotic HT29 cells ([3]; time-course, 48 h of treatment): ~40%
- tail length relative to control [8]: 2.5 time of control
- expression of MRE11 and RAD50 [9]: did not substantially alter
- total NBS1 protein level [9]: significantly decreased
- γ-H2AX level [9]: increased levels
- NBS1 mRNA level [11]: significantly decreased
- GLI1 binding enrichment on the NBS1 promoter [12]: significantly reduced
- co-localization of NBS1 and MRE11 ([13]; HT29, 20 μM): significant decrease
- fluorescent signal of NBS1 ([13]; HT29, 20 μM (24 h in text, 48 h in legend and method)): significantly reduced
- stability in vivo [14]: hydrolyzed and loses biological activity in vivo

Structure (SMILES): CCCS(=O)(=O)Nc1ccc(F)c(C(=O)c2c[nH]c3ncc(-c4ccc(Cl)cc4)cc23)c1F [Vemurafenib]
- response rate [15]: < 5%

Structure (SMILES): CS(=O)(=O)c1ccc(C(=O)Nc2ccc(Cl)c(-c3ccccn3)c2)c(Cl)c1 [Vismodegib]
- IC50 [1]: 80.5 µM
- IC50 higher than GANT61 ([2]; HT29 cells): 4 fold
- IC50 [2, 16]: 78.7 µM
- IC50 [2, 17]: 81.4 µM
- IC50 [2, 18]: ~80 µM
